Assay results taken from patent publication US10294218B2 (VIROSTATICS SRL, priority 2012, dated 2019).

System: laboratory strain of HIV-1
Assay: Antiviral activity against HIV (AV), p24 in infected activated primary T cells
Assay type: cell-based
Details: for IC50: Human immunodeficiency virus 1, T-cell, read-out: AV50 (Inhibitory concentration 50% for antiviral activity); for antiviral and antiproliferative activity and cytotoxicity profile (in words): summary of AV, AP and cytotoxicity assays
Procedure: Activated primary T cells are infected with a laboratory strain of HIV-1, then cultured and exposed to different concentrations of the test compounds. HIV replication is analysed by measuring the viral protein p24 and expressed as percentage of untreated control. Inhibition of viral replication (AV) is then calculated (AV=100 minus the % p24 compared to control, AV of control=0%). Inhibitory concentration 50% for antiviral activity (AV50) is calculated.
In Tables 2, 3 and 4, ND means Not Determined.

SMILES: CCOc1ccccc1-c1cc(Nc2ccc(OC)c(N)c2)ncn1 [Example 62, N^1-[6-(2-Ethoxy-phenyl)-pyrimidin-4-yl]-4-methoxy-benzene-1,3-diamine]
- IC50: < 0.08 µM
- antiviral and antiproliferative activity and cytotoxicity profile (in words): good antiviral and antiproliferative activity and a good cytotoxicity profile

SMILES: COc1ccc(-c2cc(Nc3ccc(OC)c(N)c3)ncn2)cc1 [Example 66, 4-Methoxy-N^1-[6-(4-methoxy-phenyl)-pyrimidin-4-yl]-benzene-1,3-diamine]
- IC50: > 10 µM

SMILES: COc1cccc(-c2cc(Nc3ccc(OC)c(N)c3)ncn2)c1 [Example 68, 4-Methoxy-N^1-[6-(3-methoxy-phenyl)-pyrimidin-4-yl]-benzene-1,3-diamine]
- IC50: 1 µM

SMILES: COc1ccc(Nc2cc(-c3ccccc3O)ncn2)cc1N [Example 70, 2-[6-(3-Amino-4-methoxy-phenylamino)-pyrimidin-4-yl]-phenol]
- IC50: > 10 µM

SMILES: COc1ccc(Nc2cc(-c3ccccc3OCc3ccccc3)ncn2)cc1N [Example 71, N^1-[6-(2-Benzyloxy-phenyl)-pyrimidin-4-yl]-4-methoxy-benzene-1,3-diamine]
- IC50: 2 µM

SMILES: CCOc1cc(F)ccc1-c1cc(Nc2ccc(OC)c(N)c2)ncn1 [Example 73, N^1-[6-(2-Ethoxy-4-fluoro-phenyl)-pyrimidin-4-yl]-4-methoxy-benzene-1,3-diamine]
- IC50: 0.0002 µM
- antiviral and antiproliferative activity and cytotoxicity profile (in words): good antiviral and antiproliferative activity and a good cytotoxicity profile

SMILES: COc1ccc(Nc2cc(-c3ccccc3Oc3ccccc3)ncn2)cc1N [Example 77, 4-Methoxy-N^1-[6-(2-phenoxy-phenyl)-pyrimidin-4-yl]-benzene-1,3-diamine]
- IC50: 10 µM

SMILES: COc1ccc(Nc2cc(-c3cccc(F)c3OC)ncn2)cc1N [Example 81, N^1-[6-(3-Fluoro-2-methoxy-phenyl)-pyrimidin-4-yl]-4-methoxy-benzene-1,3-diamine]
- IC50: 0.06 µM

SMILES: COc1ccc(Nc2cc(-c3cc(F)c(F)cc3OC)ncn2)cc1N [Example 83, N^1-[6-(4,5-Difluoro-2-methoxy-phenyl)-pyrimidin-4-yl]-4-methoxy-benzene-1,3-diamine]
- IC50: 0.007 µM
- antiviral and antiproliferative activity and cytotoxicity profile (in words): good antiviral and antiproliferative activity and a good cytotoxicity profile

SMILES: COc1ccc(Nc2cc(-c3ccc(F)cc3OC(C)C)ncn2)cc1N [Example 86, N^1-[6-(4-Fluoro-2-isopropoxy-phenyl)-pyrimidin-4-yl]-4-methoxy-benzene-1,3-diamine]
- IC50: 0.1 µM

SMILES: COc1ccccc1-c1cc(Nc2cc(N)c(OC)c(F)c2)ncn1 [Example 88, 5-Fluoro-4-methoxy-N^1-[6-(2-methoxy-phenyl)-pyrimidin-4-yl]-benzene-1,3-diamine]
- IC50: > 0.4 µM

SMILES: CCOc1cc(F)ccc1-c1cc(Nc2cc(N)c(OC)c(F)c2)ncn1 [Example 89, N^1-[6-(2-Ethoxy-4-fluoro-phenyl)-pyrimidin-4-yl]-5-fluoro-4-methoxy-benzene-1,3-diamine]
- IC50: > 0.4 µM

SMILES: COc1cc(F)ccc1-c1cc(Nc2cc(N)c(OC)c(F)c2)ncn1 [Example 90, 5-Fluoro-N^1-[6-(4-fluoro-2-methoxy-phenyl)-pyrimidin-4-yl]-4-methoxy-benzene-1,3-diamine]
- IC50: > 0.4 µM

SMILES: COc1cc(F)c(Nc2cc(-c3ccccc3OC)ncn2)cc1N [Example 92, 4-Fluoro-6-methoxy-N^3-[6-(2-methoxy-phenyl)-pyrimidin-4-yl]-benzene-1,3-diamine]
- IC50: 0.25 µM

SMILES: CCOc1ccc(Nc2cc(-c3ccccc3OC)ncn2)cc1N [Example 101, 4-Ethoxy-N^1-[6-(2-methoxy-phenyl)-pyrimidin-4-yl]-benzene-1,3-diamine]
- IC50: 0.06 µM

SMILES: CCOc1ccc(Nc2cc(-c3ccc(F)cc3OC)ncn2)cc1N [Example 105, 4-Ethoxy-N^1-[6-(4-fluoro-2-methoxy-phenyl)-pyrimidin-4-yl]-benzene-1,3-diamine]
- IC50: 0.016 µM

SMILES: COc1ccc(Nc2cc(-c3cc(F)ccc3OC)ncn2)cc1O [Example 122, 5-[6-(5-Fluoro-2-methoxy-phenyl)-pyrimidin-4-ylamino]-2-methoxy-phenol]
- IC50: 0.08 µM

SMILES: COc1ccc(Nc2cc(-c3ccc(F)cc3OC)ncn2)cc1O [Example 123, 5-[6-(4-Fluoro-2-methoxy-phenyl)-pyrimidin-4-ylamino]-2-methoxy-phenol]
- IC50: 0.05 µM
- antiviral and antiproliferative activity and cytotoxicity profile (in words): good antiviral and antiproliferative activity and a good cytotoxicity profile

SMILES: CCOc1cc(F)ccc1-c1cc(Nc2ccc(OC)c(C(N)=O)c2)ncn1 [Example 130, 5-[6-(2-Ethoxy-4-fluoro-phenyl)-pyrimidin-4-ylamino]-2-methoxy-benzamide]
- IC50: 0.016 µM
- antiviral and antiproliferative activity and cytotoxicity profile (in words): good antiviral and antiproliferative activity and a good cytotoxicity profile

SMILES: CCOc1ccc(F)cc1-c1cc(Nc2ccc(OC)c(C(N)=O)c2)ncn1 [Example 131, 5-[6-(2-Ethoxy-5-fluoro-phenyl)-pyrimidin-4-ylamino]-2-methoxy-benzamide]
- IC50: < 0.08 µM
- antiviral and antiproliferative activity and cytotoxicity profile (in words): good antiviral and antiproliferative activity and a good cytotoxicity profile

SMILES: COc1ccccc1-c1cc(Nc2ccc(C(N)=O)c(Cl)c2)ncn1 [Example 132, 2-Chloro-4-[6-(2-methoxy-phenyl)-pyrimidin-4-ylamino]-benzamide]
- IC50: 5 µM

SMILES: COC(=O)c1ccc(Nc2cc(-c3ccccc3OC)ncn2)cc1OC [Example 133, 2-Methoxy-4-[6-(2-methoxy-phenyl)-pyrimidin-4-ylamino]-benzoic Acid Methyl Ester]
- IC50: 7 µM

SMILES: COc1ccccc1-c1cc(Nc2cc(F)c(OC)c(C(N)=O)c2)ncn1 [Example 137, 3-Fluoro-2-methoxy-5-[6-(2-methoxy-phenyl)-pyrimidin-4-ylamino]-benzamide]
- IC50: > 2 µM

SMILES: COc1cc(F)ccc1-c1cc(Nc2cc(F)c(OC)c(C(N)=O)c2)ncn1 [Example 138, 3-Fluoro-5-[6-(4-fluoro-2-methoxy-phenyl)-pyrimidin-4-ylamino]-2-methoxy-benzamide]
- IC50: > 0.4 µM

SMILES: CCOc1cc(F)ccc1-c1cc(Nc2cc(F)c(OC)c(C(N)=O)c2)ncn1 [Example 139, 5-[6-(2-Ethoxy-4-fluoro-phenyl)-pyrimidin-4-ylamino]-3-fluoro-2-methoxy-benzamide]
- IC50: 0.4 µM

SMILES: COc1ccc(F)cc1-c1cc(Nc2cc(F)c(OC)c(C(N)=O)c2)ncn1 [Example 140, 3-Fluoro-5-[6-(5-fluoro-2-methoxy-phenyl)-pyrimidin-4-ylamino]-2-methoxy-benzamide]
- IC50: > 0.4 µM

SMILES: CCOc1ccccc1-c1cc(Nc2cc(F)c(OC)c(C(N)=O)c2)ncn1 [Example 141, 5-[6-(2-Ethoxy-phenyl)-pyrimidin-4-ylamino]-3-fluoro-2-methoxy-benzamide]
- IC50: 0.08 µM
- antiviral and antiproliferative activity and cytotoxicity profile (in words): good antiviral and antiproliferative activity and a good cytotoxicity profile

SMILES: CCOc1ccc(F)cc1-c1cc(Nc2cc(C(N)=O)c(OC)cc2F)ncn1 [Example 148, 5-[6-(2-Ethoxy-5-fluoro-phenyl)-pyrimidin-4-ylamino]-4-fluoro-2-methoxy-benzamide]
- IC50: < 0.08 µM
